For experiment [1], the target named is T1, Lysine-specific histone demethylase 1A (Homo sapiens, UniProt O60341).
Description: Inhibition of LSD1 (unknown origin) using dimethyl K4 peptide as substrate assessed as resorufin level by spectrophotometric analysis
Another experiment deals with T47D. Kind of experiment: cells. As to conditions: Homo sapiens, 96 h.
Experiment [2] addresses T1, Lysine-specific histone demethylase 1A. The experiment in a line: Non-competitive inhibition of recombinant full-length His6-tagged LSD1 (unknown origin) using dimethylated K4N-terminal H3 peptide as substrate at 100 nM by Michaelis-Menten plot analysis.
In a further experiment the target is Cytochrome P450 2D6 (Homo sapiens, UniProt P10635). Kind of experiment: Inhibition of CYP2D6 (unknown origin). The class given is ADME.
Sequence of Cytochrome P450 2D6 (P10635 whole entry): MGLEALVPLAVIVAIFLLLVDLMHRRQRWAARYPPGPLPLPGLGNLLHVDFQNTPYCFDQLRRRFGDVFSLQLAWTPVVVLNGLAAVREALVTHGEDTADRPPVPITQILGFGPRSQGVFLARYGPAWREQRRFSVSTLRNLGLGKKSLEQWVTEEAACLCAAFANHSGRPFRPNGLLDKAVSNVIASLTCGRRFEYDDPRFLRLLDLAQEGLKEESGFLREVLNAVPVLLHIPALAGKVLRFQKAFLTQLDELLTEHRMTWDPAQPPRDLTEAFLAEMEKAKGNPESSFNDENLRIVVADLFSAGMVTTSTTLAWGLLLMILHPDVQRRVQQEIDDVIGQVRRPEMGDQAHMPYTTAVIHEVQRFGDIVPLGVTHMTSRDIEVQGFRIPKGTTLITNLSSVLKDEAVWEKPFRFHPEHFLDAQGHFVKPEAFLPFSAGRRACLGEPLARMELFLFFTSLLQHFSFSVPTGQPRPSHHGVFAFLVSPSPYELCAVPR
Experiment [3] addresses T2, Amine oxidase [flavin-containing] B (Homo sapiens, UniProt P27338).
T2 sequence (P27338 whole entry): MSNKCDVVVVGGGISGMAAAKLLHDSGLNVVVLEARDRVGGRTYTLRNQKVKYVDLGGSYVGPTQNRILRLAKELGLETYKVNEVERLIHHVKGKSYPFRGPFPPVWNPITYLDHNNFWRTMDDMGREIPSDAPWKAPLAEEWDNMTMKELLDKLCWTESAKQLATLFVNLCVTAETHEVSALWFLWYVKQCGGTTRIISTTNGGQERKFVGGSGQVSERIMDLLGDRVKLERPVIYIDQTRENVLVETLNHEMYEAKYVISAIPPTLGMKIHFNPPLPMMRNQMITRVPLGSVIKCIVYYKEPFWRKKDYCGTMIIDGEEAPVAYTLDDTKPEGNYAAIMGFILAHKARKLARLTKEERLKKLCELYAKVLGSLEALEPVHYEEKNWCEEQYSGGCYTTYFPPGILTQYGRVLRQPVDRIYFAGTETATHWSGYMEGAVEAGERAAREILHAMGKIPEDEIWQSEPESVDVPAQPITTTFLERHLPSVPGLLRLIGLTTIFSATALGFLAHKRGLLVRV
Description: Inhibition of MAO-B (unknown origin)

The target of experiment [4] is T1, Lysine-specific histone demethylase 1A. The experiment in a line: Non-competitive inhibition of recombinant full-length His6-tagged LSD1 (unknown origin) using dimethylated K4N-terminal H3 peptide as substrate at 30 nM by Michaelis-Menten plot analysis.
In another experiment the target is Cytochrome P450 3A4 (Homo sapiens, UniProt P08684). The experiment in a line: Inhibition of CYP3A4 (unknown origin). The class given is ADME.
Sequence of Cytochrome P450 3A4 (P08684 whole entry): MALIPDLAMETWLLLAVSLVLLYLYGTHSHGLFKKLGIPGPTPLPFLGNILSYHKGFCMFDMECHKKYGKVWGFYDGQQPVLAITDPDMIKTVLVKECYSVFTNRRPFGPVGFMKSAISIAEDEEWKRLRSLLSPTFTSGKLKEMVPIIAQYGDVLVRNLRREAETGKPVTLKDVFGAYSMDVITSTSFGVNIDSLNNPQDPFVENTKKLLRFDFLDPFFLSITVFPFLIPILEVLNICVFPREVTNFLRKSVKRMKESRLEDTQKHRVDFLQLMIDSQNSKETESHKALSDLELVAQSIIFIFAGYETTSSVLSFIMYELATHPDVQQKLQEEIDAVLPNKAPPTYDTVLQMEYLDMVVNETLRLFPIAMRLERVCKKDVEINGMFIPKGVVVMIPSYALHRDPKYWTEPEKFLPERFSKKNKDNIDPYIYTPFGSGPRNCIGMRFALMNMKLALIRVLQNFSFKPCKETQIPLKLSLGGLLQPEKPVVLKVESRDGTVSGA
Experiment [5] addresses T1, Lysine-specific histone demethylase 1A. Kind of experiment: Non-competitive inhibition of recombinant full-length His6-tagged LSD1 (unknown origin) using dimethylated K4N-terminal H3 peptide as substrate at 1 nM by Michaelis-Menten plot analysis.
The nature of experiment [6]: Inhibition of glucose oxidase (unknown origin). More on the design: […].
Experiment [7] has as its target T1, Lysine-specific histone demethylase 1A. Kind of experiment: Reversible inhibition of full-length 6His-tagged LSD1 (unknown origin) at 10XIC50 preincubated for 1 hr followed by 100 fold dilution relative to control.
Experiment [8] shares this target. The experiment in a line: Non-competitive inhibition of recombinant full-length His6-tagged LSD1 (unknown origin) using dimethylated K4N-terminal H3 peptide as substrate at 10 nM by Michaelis-Menten plot analysis.
The target is the same in experiment [9]. Kind of experiment: Non-competitive inhibition of recombinant full-length His6-tagged LSD1 (unknown origin) using dimethylated K4N-terminal H3 peptide as substrate at 3 nM by Michaelis-Menten plot analysis.
Experiment [10] can be described thus: Inhibition of D-lactate dehydrogenase (unknown origin). The arrangement: species or system Homo sapiens.
Experiment [11] concerns the target Voltage-gated inwardly rectifying potassium channel KCNH2 (Homo sapiens, UniProt Q12809). The experiment in a line: Inhibition of human ERG.
Experiment [12] has as its target T1, Lysine-specific histone demethylase 1A. The experiment in a line: Binding affinity to recombinant full-length His6-tagged LSD1 (unknown origin) assessed as Boltzmann melting temperature at 15 uM after 30 mins by differential scanning fluorimetry. On the technique in general: DSF heats the sample and reads unfolding from a dye or from intrinsic fluorescence.

The target is the same in experiment [13]. The experiment in a line: Binding affinity to recombinant full-length His6-tagged LSD1 (unknown origin) assessed as first derivative melting temperature at 15 uM after 30 mins by differential scanning fluorimetry.
The target in experiment [14] is T3, Amine oxidase [flavin-containing] A (Homo sapiens, UniProt P21397).
T3 sequence (P21397 whole entry): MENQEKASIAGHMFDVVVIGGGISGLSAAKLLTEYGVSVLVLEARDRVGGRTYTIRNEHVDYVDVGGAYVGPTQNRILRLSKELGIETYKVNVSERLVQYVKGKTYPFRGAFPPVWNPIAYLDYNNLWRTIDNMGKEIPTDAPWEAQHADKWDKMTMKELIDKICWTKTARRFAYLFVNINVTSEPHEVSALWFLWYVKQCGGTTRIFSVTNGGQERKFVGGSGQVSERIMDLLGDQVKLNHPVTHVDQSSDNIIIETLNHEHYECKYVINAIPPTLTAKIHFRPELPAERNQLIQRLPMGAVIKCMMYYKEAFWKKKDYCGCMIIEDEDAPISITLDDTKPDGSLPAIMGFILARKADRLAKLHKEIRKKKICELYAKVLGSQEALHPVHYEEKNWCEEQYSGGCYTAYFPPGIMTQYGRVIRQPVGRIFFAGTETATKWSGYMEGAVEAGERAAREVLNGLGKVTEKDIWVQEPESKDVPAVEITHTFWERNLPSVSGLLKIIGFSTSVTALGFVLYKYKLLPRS
Description: Inhibition of MAO-A (unknown origin)

The target of another experiment is Cytochrome P450 2C19 (Homo sapiens, UniProt P33261). Kind of experiment: Inhibition of CYP2C19 (unknown origin). The class given is ADME.
Sequence of Cytochrome P450 2C19 (P33261 whole entry): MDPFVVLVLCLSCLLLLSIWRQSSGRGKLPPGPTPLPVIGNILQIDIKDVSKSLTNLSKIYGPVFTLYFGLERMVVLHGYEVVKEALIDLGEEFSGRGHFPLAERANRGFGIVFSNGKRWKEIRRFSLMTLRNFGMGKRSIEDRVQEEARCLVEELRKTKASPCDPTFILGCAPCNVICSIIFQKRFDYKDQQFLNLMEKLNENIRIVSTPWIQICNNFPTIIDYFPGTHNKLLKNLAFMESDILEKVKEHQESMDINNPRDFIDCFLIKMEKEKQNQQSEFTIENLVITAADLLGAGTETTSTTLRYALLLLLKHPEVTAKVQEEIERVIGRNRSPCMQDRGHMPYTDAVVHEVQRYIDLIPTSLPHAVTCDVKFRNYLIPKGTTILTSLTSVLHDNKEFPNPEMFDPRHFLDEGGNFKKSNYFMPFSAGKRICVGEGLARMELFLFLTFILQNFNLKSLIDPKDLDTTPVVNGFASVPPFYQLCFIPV
In another experiment the target is Cytochrome P450 2C9 (Homo sapiens, UniProt P11712). The experiment in a line: Inhibition of CYP2C9 (unknown origin). The experiment is classed as ADME.
Sequence of Cytochrome P450 2C9 (P11712 whole entry): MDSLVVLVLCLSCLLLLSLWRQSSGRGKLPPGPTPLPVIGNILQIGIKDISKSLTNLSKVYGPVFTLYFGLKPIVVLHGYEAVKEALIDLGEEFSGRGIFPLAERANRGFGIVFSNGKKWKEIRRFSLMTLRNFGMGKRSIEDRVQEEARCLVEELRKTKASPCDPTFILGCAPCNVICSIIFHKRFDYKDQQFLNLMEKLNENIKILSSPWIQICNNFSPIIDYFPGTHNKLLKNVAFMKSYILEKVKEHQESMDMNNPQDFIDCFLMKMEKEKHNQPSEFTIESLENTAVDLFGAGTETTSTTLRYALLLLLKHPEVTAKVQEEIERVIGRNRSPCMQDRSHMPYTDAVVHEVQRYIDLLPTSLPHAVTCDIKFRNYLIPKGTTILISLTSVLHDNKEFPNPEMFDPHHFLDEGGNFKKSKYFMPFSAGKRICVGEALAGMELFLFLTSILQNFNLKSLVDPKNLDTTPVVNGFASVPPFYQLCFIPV
The next experiment has as its target T4, Cytochrome P450 1A2 (Homo sapiens, UniProt P05177).
T4 sequence (P05177 whole entry): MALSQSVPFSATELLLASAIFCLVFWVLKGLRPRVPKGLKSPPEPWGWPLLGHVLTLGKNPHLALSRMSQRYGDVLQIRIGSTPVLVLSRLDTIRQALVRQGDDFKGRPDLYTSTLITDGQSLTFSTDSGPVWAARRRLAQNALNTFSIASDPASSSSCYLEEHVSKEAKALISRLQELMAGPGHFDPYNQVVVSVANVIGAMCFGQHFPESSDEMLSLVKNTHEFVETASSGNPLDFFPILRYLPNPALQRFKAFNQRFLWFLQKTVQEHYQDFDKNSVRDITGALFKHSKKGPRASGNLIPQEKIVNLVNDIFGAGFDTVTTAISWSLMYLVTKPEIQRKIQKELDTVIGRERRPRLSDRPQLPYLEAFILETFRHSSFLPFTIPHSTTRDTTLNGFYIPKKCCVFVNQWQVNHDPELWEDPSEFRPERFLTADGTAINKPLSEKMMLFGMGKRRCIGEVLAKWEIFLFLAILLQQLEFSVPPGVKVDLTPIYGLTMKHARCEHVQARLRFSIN
Kind of experiment: Inhibition of CYP1A2 (unknown origin). The experiment is classed as ADME.

The target in experiment [15] is T1, Lysine-specific histone demethylase 1A. Kind of experiment: Inhibition of GST-tagged human recombinant LSD1 using dimethylated H3K4 peptide as substrate by mass spectrometric analysis.
Experiment [16] has the same target. Kind of experiment: Inhibition of human recombinant LSD1 expressed in Escherichia coli BL21(DE3) using H3K4me2 as substrate by chemiluminescence assay.
The target is the same in experiment [17]. The experiment in a line: Reversible inhibition of full-length 6His-tagged LSD1 (unknown origin) at 10XIC50 after 1 hr relative to control.
Experiment [18] shares this target. The experiment in a line: Binding affinity to recombinant full-length His6-tagged LSD1 (unknown origin) assessed as second derivative melting temperature at 15 uM after 30 mins by differential scanning fluorimetry (reference value: […] +/- 1.08 degC).

The source made the active and inactive calls. No cut-off for these calls is given here.

Sequence of Voltage-gated inwardly rectifying potassium channel KCNH2 (Q12809 whole entry): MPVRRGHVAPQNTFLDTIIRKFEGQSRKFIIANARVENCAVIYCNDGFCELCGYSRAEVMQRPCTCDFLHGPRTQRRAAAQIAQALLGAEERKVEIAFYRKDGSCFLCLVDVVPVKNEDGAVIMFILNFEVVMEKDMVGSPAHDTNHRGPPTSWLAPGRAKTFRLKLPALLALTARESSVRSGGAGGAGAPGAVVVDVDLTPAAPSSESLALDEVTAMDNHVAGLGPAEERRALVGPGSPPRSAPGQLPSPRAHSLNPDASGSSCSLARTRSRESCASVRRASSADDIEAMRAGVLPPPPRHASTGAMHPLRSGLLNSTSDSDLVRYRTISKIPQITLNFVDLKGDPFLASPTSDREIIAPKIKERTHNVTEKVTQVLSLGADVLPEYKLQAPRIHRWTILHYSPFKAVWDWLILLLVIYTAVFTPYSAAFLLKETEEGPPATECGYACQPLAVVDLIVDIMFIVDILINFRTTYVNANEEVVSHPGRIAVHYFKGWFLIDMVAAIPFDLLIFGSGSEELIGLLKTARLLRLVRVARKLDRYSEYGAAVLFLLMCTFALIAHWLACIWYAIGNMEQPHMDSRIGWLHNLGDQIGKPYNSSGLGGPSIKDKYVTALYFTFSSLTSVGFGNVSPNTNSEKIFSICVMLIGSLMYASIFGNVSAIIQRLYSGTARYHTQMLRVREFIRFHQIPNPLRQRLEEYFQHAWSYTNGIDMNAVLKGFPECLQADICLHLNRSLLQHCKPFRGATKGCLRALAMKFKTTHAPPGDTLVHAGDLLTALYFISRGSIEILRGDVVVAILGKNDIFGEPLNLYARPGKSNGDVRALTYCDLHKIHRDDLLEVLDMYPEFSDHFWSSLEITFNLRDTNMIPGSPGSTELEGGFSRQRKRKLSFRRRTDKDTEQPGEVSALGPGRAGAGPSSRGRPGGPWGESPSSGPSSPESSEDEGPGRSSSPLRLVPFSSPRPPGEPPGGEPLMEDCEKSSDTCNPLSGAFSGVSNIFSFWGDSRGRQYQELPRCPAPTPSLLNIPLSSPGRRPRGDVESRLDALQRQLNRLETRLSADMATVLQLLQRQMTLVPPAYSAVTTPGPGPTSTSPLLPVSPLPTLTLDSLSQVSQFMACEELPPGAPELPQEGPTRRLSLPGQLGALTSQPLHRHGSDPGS

Turning to `C/C(=N\NC(=O)c1cccc(S(=O)(=O)N2CCOCC2)c1)c1ccnc(Cl)c1`, the half-maximal inhibitory concentration (IC50) (usually the midpoint of a concentration-inhibition curve) is above 3 µM in [1] and above 10 µM in the experiment on T47D.

Consider `C/C(=N\NC(=O)c1cccc(S(=O)(=O)N2CCOCC2)c1)c1cc(Cl)ccc1O`, for which the inhibitory constant (Ki) (as a rule, a measure of affinity in units of concentration, obtained from inhibition or displacement) in experiment [2] stood at 0.0547 µM; in [4], 0.0352 µM; in [5], 0.0135 µM; in [8], 0.0319 µM; in experiment [9], 0.0353 µM. Moreover, the concentration for half-maximal inhibition (IC50) was above 10 µM on Cytochrome P450 2D6; above 300 µM in experiment [3]; 2.61 µM against Cytochrome P450 3A4; above 10 µM in experiment [6]; above 10 µM in experiment [10]; above 10 µM in experiment [11]. For the same molecule, the half-maximal inhibitory concentration (IC50) in experiment [14] was above 300 µM; on Cytochrome P450 2C19 it was 9.76 µM; against Cytochrome P450 2C9, 8.04 µM; on Cytochrome P450 1A2, above 10 µM. Also, the inhibition – broadly, how much of the control response was suppressed – in experiment [7] stood at 65.7%. Besides, the Tm worked out at 44.6 °C in [12] and 45.4 °C in [13].

For the molecule `C/C(=N/NC(=O)c1cnc(Cl)c(Br)c1)c1cc(Cl)ccc1O`, the half-maximal inhibitory concentration (IC50) in experiment [1] is above 3 µM; in the experiment on T47D, 0.27 µM.

On to `O=C(NNC(=O)c1cc(S(=O)(=O)N2CCOCC2)ccc1F)c1cccc(Cl)c1`, for which the concentration for half-maximal inhibition (IC50) in experiment [1] is above 3 µM; in the experiment on T47D it was above 10 µM.

Turning to `COC(=O)c1cc(CN2CCN(C(=N)N)CC2)cc(C(=O)N2CCN(C(=O)c3ccc(C=N)cc3)CC2)c1`, the IC50 in experiment [15] was determined as 5.2 µM.

As for `CCNCCCNC/C=C\CNCCCNCC`, the half-inhibitory concentration (IC50) in experiment [16] came to 0.25 µM.

In the case of `COc1ccc(Cl)cc1C(=O)NNC(=O)c1cc(S(=O)(=O)N2CCOCC2)ccc1F`, the 50% inhibitory concentration (IC50) was above 3 µM in experiment [1] and above 10 µM in the experiment on T47D.

For the molecule `C/C(=N\NC(=O)c1cccc(S(=O)(=O)N2CCOCC2)c1)c1cc(Cl)ccc1Cl`, the IC50 in [1] is above 3 µM; with T47D, 1.7 µM. Besides, the inhibition result in experiment [17] and in experiment [7] was “inactive” each time. Further, the figures for the Tm in experiment [18], in experiment [12] and in experiment [13] were 46.7 °C, 43.3 °C and 40.8 °C, respectively.

With `C/C(=N\NC(=O)c1cccc(S(=O)(=O)N2CCOCC2)c1)c1cccc(Cl)c1F`, the concentration for half-maximal inhibition (IC50) in experiment [1] is above 3 µM; in the experiment on T47D, above 10 µM.

For `CC/C(=N/NC(=O)c1cccc(S(=O)(=O)N2CCOCC2)c1)c1cc(Cl)ccc1O`, the IC50 is above 3 µM in [1] and 0.352 µM in the experiment on T47D.

As to `C/C(=N\NC(=O)c1ccccc1)c1c(O)cccc1O`, the IC50 is above 3 µM in experiment [1] and above 10 µM in the experiment on T47D.

Take `C/C(=N\NC(=O)c1cccc(S(=O)(=O)N2CCOCC2)c1)c1cccc2ccccc12`: the concentration for half-maximal inhibition (IC50) with T47D is above 10 µM.

For the molecule `C/C(=N/NC(=O)c1cccc(S(=O)(=O)N2CCOCC2)c1)c1cccnc1`, the half-inhibitory concentration (IC50) in experiment [1] is above 3 µM.

For `CCN(CC)c1cccc(C(=O)N/N=C(\C)c2cccc(C)c2)c1`, the half-maximal inhibitory concentration (IC50) in experiment [1] is above 3 µM; with T47D, above 10 µM.

In the case of `C/C(=N/NC(=O)c1cncc(Cl)c1)c1cc(Cl)ccc1O`, the 50% inhibitory concentration (IC50) is above 3 µM in [1] and 0.616 µM with T47D.

Regarding `C/C(=N/NC(=O)c1ccc(Cl)c(Br)c1)c1cc(Cl)ccc1O`, the concentration for half-maximal inhibition (IC50) in experiment [1] was above 3 µM; in the experiment with T47D, 0.565 µM.

Turning to `C/C(=N/NC(=O)c1cccc(S(=O)(=O)N(C)C)c1)c1cc(Cl)ccc1O`, half-maximal inhibition in the experiment on T47D (IC50) was put at 1.38 µM.

These data come from ChEMBL document CHEMBL3102716, “High-throughput virtual screening identifies novel N'-(1-phenylethylidene)-benzohydrazides as potent, specific, and reversible LSD1 inhibitors” (J Med Chem, 2013).
